Each structure is given as a SMILES string.

The target of the first test is SARS-CoV-2 M^pro protease (Severe acute respiratory syndrome coronavirus 2 (2019-nCoV) (SARS-CoV-2), UniProt P0DTD1). In words: biochemical. In kind it is biochemical. To be noted: Table 5A; M^pro 75 nM, substrate 10 μM.
As usually defined, the IC50 is the point on the concentration scale where inhibition reaches its midpoint. Lower therefore signals greater potency. For `Cc1c(Br)cncc1N1C(=O)NC2(CC(C3CCC3)C2)C1=O` (stereo not drawn) [Compound 6, 7-(5-bromo-4-methylpyridin-3-yl)-2-cyclobutyl-5,7-diazaspiro[3.4]octane-6,8-dione], the IC50 was found to be 2000 nM. Same read-out and setting: in the case of `O=C1NC2(CC(C3CCC3)C2)C(=O)N1c1cncc(Br)c1` (stereo not drawn) [Compound 14, 7-(5-bromopyridin-3-yl)-2-cyclobutyl-5,7-diazaspiro[3.4]octane-6,8-dione] it was 6000 nM; in that of `Cc1cccnc1CN1C(=O)NC2(CC(C(C)(C)C)C2)C1=O` (stereo not drawn) [Compound 9, 2-tert-butyl-7-[(3-methylpyridin-2-yl)methyl]-5,7-diazaspiro[3.4]octane-6,8-dione], above 10000 nM.

Staying with this test, now noted: Tables 5B-5E; M^pro 75 nM, substrate 10 μM.
In turn, `O=C1NC2(CC(c3sccc3Cl)C2)C(=O)N1c1cncc2ccccc12` (single isomer, unassigned) [Compound 42, 2-(3-chlorothiophen-2-yl)-7-(isoquinolin-4-yl)-5,7-diazaspiro[3.4]octane-6,8-dione] displayed an IC50 of 185 nM.

The compound `COc1ccccc1C1CC2(C1)NC(=O)N(c1cncc3ccccc13)C2=O` (stereo not drawn) [Compound 20, 7-(isoquinolin-4-yl)-2-(2-methoxyphenyl)-5,7-diazaspiro[3.4]octane-6,8-dione] returned an IC50 of 477 nM. The same measure, in the same setting: under `O=C1NC2(CC(c3cc(F)c(F)cc3Cl)C2)C(=O)N1c1cncc2ccccc12` (stereo not drawn) [Compound 87, 2-(2-chloro-4,5-difluorophenyl)-7-(isoquinolin-4-yl)-5,7-diazaspiro[3.4]octane-6,8-dione] stands 115 nM; under `O=C1NC2(CC(c3sccc3Br)C2)C(=O)N1c1cncc2ccccc12` (single isomer, unassigned) [Compound 44, 2-(3-bromothiophen-2-yl)-7-(isoquinolin-4-yl)-5,7-diazaspiro[3.4]octane-6,8-dione], 81 nM. Consider `O=C1N(c2cncc3ccccc23)C(=O)C2(CC(C3CCC3)C2)N1Cc1ccn[nH]1` (stereo not drawn) [Compound 80, 5-((1H-pyrazol-5-yl)methyl)-2-cyclobutyl-7-(isoquinolin-4-yl)-5,7-diazaspiro[3.4]octane-6,8-dione], for which half-maximal inhibition (IC50) was put at 3820 nM.

With `O=C1NC2(CC(c3ccccc3Br)C2)C(=O)N1c1cncc2ccccc12` (single isomer, unassigned) [Compound 16, 2-(2-bromophenyl)-7-(isoquinolin-4-yl)-5,7-diazaspiro[3.4]octane-6,8-dione], the IC50 was 127 nM. Consider `O=C(CN1C(=O)N(c2cncc3ccccc23)C(=O)C12CC(C1CCC1)C2)c1ccccn1` (stereo not drawn) [Compound 73, 2-cyclobutyl-7-(isoquinolin-4-yl)-5-(2-oxo-2-(pyridin-2-yl)ethyl)-5,7-diazaspiro[3.4]octane-6,8-dione], for which the IC50 came out at 1440 nM. Same read-out and setting: in the case of `Cc1ccc2cncc(N3C(=O)NC4(CC(C5CCC5)C4)C3=O)c2c1` (stereo not drawn) [Compound 58, 2-cyclobutyl-7-(6-methylisoquinolin-4-yl)-5,7-diazaspiro[3.4]octane-6,8-dione] it was 361 nM; in that of `O=C1NC2(CC(c3sccc3Br)C2)C(=O)N1c1cncc2ccccc12` (single isomer, unassigned) [Compound 45, 2-(3-bromothiophen-2-yl)-7-(isoquinolin-4-yl)-5,7-diazaspiro[3.4]octane-6,8-dione], 57 nM; in that of `CC1(c2ccccc2)CC2(C1)NC(=O)N(c1cncc3ccccc13)C2=O` (single isomer, unassigned) [Compound 39, 7-(isoquinolin-4-yl)-2-methyl-2-phenyl-5,7-diazaspiro[3.4]octane-6,8-dione], 926 nM. Still for that read-out and setting: in the case of `CN(C)c1ccncc1N1C(=O)NC2(CC(c3ccccc3Cl)C2)C1=O` (stereo not drawn) [Compound 93, 2-(2-chlorophenyl)-7-(4-(dimethylamino)pyridin-3-yl)-5,7-diazaspiro[3.4]octane-6,8-dione] it was 157 nM; in that of `O=C1NC2(CC(c3ccsc3Cl)C2)C(=O)N1c1cncc2ccccc12` (single isomer, unassigned) [Compound 40, 2-(2-chlorothiophen-3-yl)-7-(isoquinolin-4-yl)-5,7-diazaspiro[3.4]octane-6,8-dione], 304 nM; in that of `O=C1NC2(CC(c3ccccc3Cl)C2)C(=O)N1c1cc(Br)cnc1F` (stereo not drawn) [Compound 85, 7-(5-bromo-2-fluoropyridin-3-yl)-2-(2-chlorophenyl)-5,7-diazaspiro[3.4]octane-6,8-dione], 323 nM. In turn, `O=C1NC2(CC(c3c(Cl)cccc3Cl)C2)C(=O)N1c1cncc2ccccc12` (single isomer, unassigned) [Compound 29, 2-(2,6-dichlorophenyl)-7-(isoquinolin-4-yl)-5,7-diazaspiro[3.4]octane-6,8-dione] gave an IC50 of 165 nM. On the same count and under the same terms, in the case of `CC1(c2ccc(F)cc2Cl)CC2(C1)NC(=O)N(c1cncc3ccccc13)C2=O` (single isomer, unassigned) [Compound 84, 2-(2-chloro-4-fluorophenyl)-7-(isoquinolin-4-yl)-2-methyl-5,7-diazaspiro[3.4]octane-6,8-dione] it was 806 nM; in that of `O=C1NC2(CC(c3ccccc3Cl)C2)C(=O)N1c1cncc2nccn12` (stereo not drawn) [Compound 99, 2-(2-chlorophenyl)-7-(imidazo[1,2-a]pyrazin-5-yl)-5,7-diazaspiro[3.4]octane-6,8-dione], 780 nM.

Consider `CC1(c2ccccc2)CC2(C1)NC(=O)N(c1cncc3ccccc13)C2=O` (single isomer, unassigned) [Compound 38, 7-(isoquinolin-4-yl)-2-methyl-2-phenyl-5,7-diazaspiro[3.4]octane-6,8-dione], for which half-maximal inhibition (IC50) was put at 71 nM. On the same count and under the same terms, under `CC1(c2ccc(F)cc2Cl)CC2(C1)NC(=O)N(c1cncc3ccccc13)C2=O` (single isomer, unassigned) [Compound 83, 2-(2-chloro-4-fluorophenyl)-7-(isoquinolin-4-yl)-2-methyl-5,7-diazaspiro[3.4]octane-6,8-dione] stands 241 nM. Same read-out and setting: in the case of `O=C1N(c2cncc3ccccc23)C(=O)C2(CC(C3CCC3)C2)N1Cc1cc(Cl)nc(Cl)c1` (stereo not drawn) [Compound 71, 2-cyclobutyl-5-((2,6-dichloropyridin-4-yl)methyl)-7-(isoquinolin-4-yl)-5,7-diazaspiro[3.4]octane-6,8-dione] it was 1070 nM. Turning to `O=C1NC2(CC(c3ccccc3F)C2)C(=O)N1c1cncc2ccccc12` (stereo not drawn) [Compound 18, 2-(2-fluorophenyl)-7-(isoquinolin-4-yl)-5,7-diazaspiro[3.4]octane-6,8-dione], the IC50 is 335 nM.

In the case of `O=C1NC2(CC(c3cc(F)ccc3Cl)C2)C(=O)N1c1cncc2ccccc12` (single isomer, unassigned) [Compound 34, 2-(2-chloro-5-fluorophenyl)-7-(isoquinolin-4-yl)-5,7-diazaspiro[3.4]octane-6,8-dione], it took 475 nM to reach half-maximal inhibition (IC50). `O=C1N(c2cncc3ccccc23)C(=O)C2(CC(C3CCC3)C2)N1Cc1ncc[nH]1` (stereo not drawn) [Compound 77, 5-((1H-imidazol-2-yl)methyl)-2-cyclobutyl-7-(isoquinolin-4-yl)-5,7-diazaspiro[3.4]octane-6,8-dione] showed an IC50 of 2520 nM. On the same count and under the same terms, under `O=C1NC2(CC(c3cccc(F)c3Cl)C2)C(=O)N1c1cncc2ccccc12` (single isomer, unassigned) [Compound 31, 2-(2-chloro-3-fluorophenyl)-7-(isoquinolin-4-yl)-5,7-diazaspiro[3.4]octane-6,8-dione] stands 150 nM; under `CC1(c2ccccc2Cl)CC2(C1)NC(=O)N(c1cncc3ccccc13)C2=O` (stereo not drawn) [Compound 95, 2-(2-chlorophenyl)-7-(isoquinolin-4-yl)-2-methyl-5,7-diazaspiro[3.4]octane-6,8-dione], 69 nM; under `O=C1NC2(CC(c3ccccc3F)C2)C(=O)N1c1cncc2ccccc12` (stereo not drawn) [Compound 19, 2-(2-fluorophenyl)-7-(isoquinolin-4-yl)-5,7-diazaspiro[3.4]octane-6,8-dione], 326 nM. Compound `CCN1C(=O)N(c2cncc3ccccc23)C(=O)C12CC(C1CCC1)C2` (stereo not drawn) [Compound 75, 2-cyclobutyl-5-ethyl-7-(isoquinolin-4-yl)-5,7-diazaspiro[3.4]octane-6,8-dione] returned an IC50 of 2000 nM. `CN1C(=O)N(c2cncc3ccccc23)C(=O)C12CC(c1ccccc1Br)C2` (stereo not drawn) [Compound 67, 2-(2-bromophenyl)-7-(isoquinolin-4-yl)-5-methyl-5,7-diazaspiro[3.4]octane-6,8-dione] displayed an IC50 of 140 nM.

On to `O=C1N(c2cncc3ccccc23)C(=O)C2(CC(C3CCC3)C2)N1Cc1ccccn1` (stereo not drawn) [Compound 76, 2-cyclobutyl-7-(isoquinolin-4-yl)-5-(pyridin-2-ylmethyl)-5,7-diazaspiro[3.4]octane-6,8-dione], for which 2470 nM corresponded to half-maximal inhibition (IC50). In the case of `O=C1NC2(CC(c3cccc(Cl)c3)C2)C(=O)N1c1cncc2ccccc12` (stereo not drawn) [Compound 25, 2-(3-chlorophenyl)-7-(isoquinolin-4-yl)-5,7-diazaspiro[3.4]octane-6,8-dione], the IC50 is 931 nM.

For the compound `COc1ccnc(F)c1N1C(=O)NC2(CC(c3ccccc3Cl)C2)C1=O` (stereo not drawn) [Compound 91, 2-(2-chlorophenyl)-7-(2-fluoro-4-methoxypyridin-3-yl)-5,7-diazaspiro[3.4]octane-6,8-dione], the IC50 is above 50000 nM. On the same count and under the same terms, in the case of `Cc1ccnc(F)c1N1C(=O)NC2(CC(c3ccccc3Cl)C2)C1=O` (stereo not drawn) [Compound 90, 2-(2-chlorophenyl)-7-(2-fluoro-4-methylpyridin-3-yl)-5,7-diazaspiro[3.4]octane-6,8-dione] it was 223 nM.

Still in this test, the particulars now being: percent of control activity at 750 nM; read-out: % activity at 750 nM.
In the case of `O=C1NC2(CC(c3ccccc3Cl)C2)C(=O)N1c1c(Cl)ncc2ccccc12` (stereo not drawn) [Compound 86, 7-(3-chloroisoquinolin-4-yl)-2-(2-chlorophenyl)-5,7-diazaspiro[3.4]octane-6,8-dione], the activity at […] is 57%.

The test is the same for the next values; noted with them: percent of control activity at 2500 nM; read-out: % activity at 2500 nM.
Turning to `O=C1NC2(CC(c3ccccc3Cl)C2)C(=O)N1c1cnccc1Oc1ccccc1` (stereo not drawn) [Compound 82, 2-(2-chlorophenyl)-7-(4-phenoxypyridin-3-yl)-5,7-diazaspiro[3.4]octane-6,8-dione], the activity at […] was 55%.

These data come from patent publication US20240208970A1, “SUBSTITUTED HYDANTOIN COMPOUNDS, METHODS FOR PREPARATION THEREOF AND USE THEREOF IN THE TREATMENT AND/OR PREVENTION OF A CORONA VIRUS DISEASE” (priority 2021, published 2024).
